According to ChEMBL document CHEMBL1201862, “PubChem BioAssay data set” (2004):
Blank lines part the entries; values can stand above or below the compound they belong to. Calls of active or inactive are those of the source.

Experiments:
[1] = NIH-3T3 fibroblast cytotoxicity, dose response, cytotoxicity control, cell-based, fluorescence, Alamar Blue, secondary assay (AID 2327); assay type: functional;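 note: NIH-3T3 mouse fibroblasts cultured with fluconazole at 8 µg/mL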
[2] = cells; assay type: functional, cell-based
[3] = C. albicans growth with fluconazole, confirmation, fluorescence, retest (AID 2467); assay type: functional, cell-based
[4] = inhibitors of intracellular T. cruzi replication, confirmation, NIH3T3 host cells, beta-gal luminescence (AID 2044); assay type: functional, cell-based;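 note: intracellular parasites grown in NIH/3T3 mouse fibroblasts as host cells; luminescent beta-galactosidase reporter signal from transgenic T. cruzi replicating inside host cells; inhibitors lower the luminescence signal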
[5] = cells; assay type: functional, cell-based; remark: listed apart in the source
[6] = cytotoxicity toward NIH3T3 fibroblasts, dose response, counter-screen, cell-based, ATP luminescence, mouse fibroblasts (AID 2010); assay type: functional;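 note: cells exposed to compound for about 90 hours before reading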
[7] = target: T1, Microphthalmia-associated transcription factor (Homo sapiens, UniProt O75030); assay: TRPM1 promoter luciferase signal decrease, dose response, MITF inhibitor project, cell-based, SK-MEL-5, cherry-picked, set 3 (AID 493073); assay type: functional
T1 sequence (O75030 whole entry): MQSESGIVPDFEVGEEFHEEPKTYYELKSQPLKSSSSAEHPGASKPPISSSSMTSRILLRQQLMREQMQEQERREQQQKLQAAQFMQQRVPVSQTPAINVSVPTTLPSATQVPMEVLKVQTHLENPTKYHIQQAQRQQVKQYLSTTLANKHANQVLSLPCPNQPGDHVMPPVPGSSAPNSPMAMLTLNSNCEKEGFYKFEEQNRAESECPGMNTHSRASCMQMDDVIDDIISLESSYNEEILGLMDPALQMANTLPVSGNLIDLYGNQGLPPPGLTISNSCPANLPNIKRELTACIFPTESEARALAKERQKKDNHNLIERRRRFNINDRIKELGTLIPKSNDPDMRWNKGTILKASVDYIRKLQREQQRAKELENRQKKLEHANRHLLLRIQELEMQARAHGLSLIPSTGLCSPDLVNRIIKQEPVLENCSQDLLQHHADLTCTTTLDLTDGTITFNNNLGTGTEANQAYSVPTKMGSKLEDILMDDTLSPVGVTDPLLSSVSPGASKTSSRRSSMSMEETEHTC

[8] = tested on: A-375; assay: MITF: Counter assay: A375 proliferation Measured in Cell-Based System Using Plate Reader - 2084-03_Inhibitor_Dose_DryPowder_Activity. [Related pubchem assays (depositor defined):AID488944]; assay type: functional; conditions: Homo sapiens
[9] = tested on: INS1; assay: beta cell apoptosis inhibitors, cytokine rescue, dose response, luminescence, retest (AID 449756); assay type: functional, cell-based; conditions: Rattus norvegicus;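 note: cell death triggered by IL-1 beta plus TNF-alpha plus IFN-gamma mixture; protective hits raise ATP signal compared with cytokine alone wells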
[10] = Shn3 3'UTR reporter inhibitors, dose response, cell-based, Clone20 osteoblasts, firefly luciferase, cherry-picked (AID 624132); assay type: functional;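 note: firefly luciferase luminescence from reporter carrying the Shn3 3'UTR in osteoblasts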
[11] = HepG2 cell cytotoxicity, dose response, cytotoxicity control for Shn3 inhibitor project, CellTiter-Glo, cherry-picked (AID 624134); assay type: functional, cell-based
[12] = control 3'UTR Renilla luciferase suppression, dose response, counter-screen for Shn3 inhibitor project, cell-based, Clone20-Shn3RL, cherry-picked (AID 624133); assay type: functional
[13] = cytotoxicity in HPDE-C7 cells, cell-based, fluorescence, HTS (AID 430); assay type: functional; conditions: Homo sapiens
[14] = cytotoxicity in KRAS-transformed pancreatic duct cells, primary screen, cell-based, fluorescence, HTS (AID 431); assay type: functional; conditions: Homo sapiens;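 note: cell line used: HPDE-C7K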
[15] = growth suppression of PTEN-null colon cells, dose response, cell-based, HCT116 PTEN knockout (AID 1047); assay type: functional;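 note: HCT116 colon tumor cells with PTEN knocked out; cells exposed to compound for 60 hours before readout; potency for loss of cell viability measured by luminescence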
[16] = growth suppression of beta-catenin-knockout colon cells, dose response, cell-based, HCT116, human colon tumor (AID 1045); assay type: functional;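 note: HCT116 colon tumor cells with beta catenin knocked out; cells exposed to compound for 60 hours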
[17] = tested on: HEK293; assay: inhibitors of LMP1-driven NF-kB reporter, dose response, cell-based, HEK293, luciferase, cherry-pick (AID 588343); assay type: functional; conditions: Homo sapiens
[18] = target: Latent membrane protein 1 (Human herpesvirus 4 (strain B95-8), UniProt P03230); assay: TES1-eGFP NF-kB reporter inhibition versus Tet-On dsRED, dose response, selectivity assay for LMP1 NF-kB inhibitor project, imaging, HEK293T, dual-color eGFP/dsRED, cherry-picks (AID 588398); assay type: functional, cell-based
[19] = target: Cyclin-dependent kinase 2 (Homo sapiens, UniProt P24941); assay: CDK2 kinase inhibitors, off-target check, dose response, selectivity assay for Dyrk1A inhibitor project, biochemical, cherry-picked samples (AID 602127)
[20] = target: Dual specificity protein kinase CLK1 (Homo sapiens, UniProt P49759); assay: CLK1 kinase inhibitors, off-target check, dose response, selectivity assay for Dyrk1A inhibitor project, biochemical, cherry-picked samples (AID 588811)
[21] = target: T2, Serine/threonine-protein phosphatase (Candida dubliniensis (strain CD36 / CBS 7987 / NCPF 3949 / NRRLY-17841) (Yeast), UniProt B9W6M3); assay: calcineurin pathway inhibitors in yeast reporter, dose response, S. cerevisiae, CDRE-lacZ, luminescence, secondary (AID 2388); assay type: functional, cell-based;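 note: yeast reporter cells carrying a calcineurin-responsive lacZ construct stimulated with calcium chloride; luminescent beta-galactosidase reporter signal in whole cells rather than isolated phosphatase activity; potency for inhibition where a drop in reporter signal means calcineurin blockade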
T2 sequence (B9W6M3 whole entry): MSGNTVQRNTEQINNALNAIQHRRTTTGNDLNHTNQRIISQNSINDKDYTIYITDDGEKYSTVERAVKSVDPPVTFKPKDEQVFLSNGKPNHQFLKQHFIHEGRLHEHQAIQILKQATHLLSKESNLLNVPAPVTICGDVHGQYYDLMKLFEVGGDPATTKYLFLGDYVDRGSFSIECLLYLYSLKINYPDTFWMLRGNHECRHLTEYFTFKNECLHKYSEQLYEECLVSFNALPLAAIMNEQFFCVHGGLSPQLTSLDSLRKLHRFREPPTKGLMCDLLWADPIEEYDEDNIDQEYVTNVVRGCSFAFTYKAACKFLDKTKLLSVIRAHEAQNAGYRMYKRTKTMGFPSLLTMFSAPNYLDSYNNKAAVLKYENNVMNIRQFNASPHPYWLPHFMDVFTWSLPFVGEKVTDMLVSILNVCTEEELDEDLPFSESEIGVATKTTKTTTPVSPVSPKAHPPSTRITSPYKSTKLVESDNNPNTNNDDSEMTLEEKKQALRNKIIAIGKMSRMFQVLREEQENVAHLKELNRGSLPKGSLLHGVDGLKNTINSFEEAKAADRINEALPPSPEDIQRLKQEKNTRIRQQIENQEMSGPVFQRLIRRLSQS

[22] = Luminescence Cell-Based Dose Retest to Confirm Inhibitors of Cancer Stem Cells. [Related pubchem assays (depositor defined):AID2717, AID2721]; assay type: functional; conditions: Homo sapiens
[23] = target: T2, Serine/threonine-protein phosphatase; assay: Fluorescence Cell-Based Secondary Assay to Identify Inhibitors of Calcineurin. [Related pubchem assays (depositor defined):AID1979, AID2007]; assay type: functional
[24] = target: ATP-dependent molecular chaperone HSP82 (Candida albicans (strain WO-1) (Yeast), UniProt C4YTQ8); assay: loss of DOC-induced GRE-beta-galactosidase reporter signal, dose response, Hsp90 inhibitor project, S. cerevisiae, luminescence (AID 2400); assay type: functional, cell-based;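 note: beta-galactosidase luminescence from glucocorticoid response element reporter as proxy for Hsp90 function; inhibitor potency where signal loss means Hsp90 inhibition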
ATP-dependent molecular chaperone HSP82, sequence (C4YTQ8 whole entry): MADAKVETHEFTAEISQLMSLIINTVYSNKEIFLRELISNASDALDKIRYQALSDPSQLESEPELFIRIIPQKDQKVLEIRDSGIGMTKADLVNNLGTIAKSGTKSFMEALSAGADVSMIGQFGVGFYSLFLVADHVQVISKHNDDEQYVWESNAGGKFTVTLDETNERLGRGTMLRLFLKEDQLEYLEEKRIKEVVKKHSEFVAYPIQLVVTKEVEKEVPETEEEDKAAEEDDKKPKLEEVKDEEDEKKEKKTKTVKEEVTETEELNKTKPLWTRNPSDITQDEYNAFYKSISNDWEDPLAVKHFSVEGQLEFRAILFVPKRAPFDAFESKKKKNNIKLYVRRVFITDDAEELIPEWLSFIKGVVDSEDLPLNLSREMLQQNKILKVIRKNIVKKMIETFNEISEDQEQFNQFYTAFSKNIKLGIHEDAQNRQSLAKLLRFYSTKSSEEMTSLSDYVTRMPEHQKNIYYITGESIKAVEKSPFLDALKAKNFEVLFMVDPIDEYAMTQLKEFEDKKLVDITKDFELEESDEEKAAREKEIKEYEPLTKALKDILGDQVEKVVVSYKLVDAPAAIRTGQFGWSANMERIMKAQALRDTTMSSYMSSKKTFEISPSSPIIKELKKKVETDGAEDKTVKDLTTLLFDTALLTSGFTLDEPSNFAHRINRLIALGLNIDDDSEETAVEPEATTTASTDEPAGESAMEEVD

Latent membrane protein 1, sequence (P03230 whole entry): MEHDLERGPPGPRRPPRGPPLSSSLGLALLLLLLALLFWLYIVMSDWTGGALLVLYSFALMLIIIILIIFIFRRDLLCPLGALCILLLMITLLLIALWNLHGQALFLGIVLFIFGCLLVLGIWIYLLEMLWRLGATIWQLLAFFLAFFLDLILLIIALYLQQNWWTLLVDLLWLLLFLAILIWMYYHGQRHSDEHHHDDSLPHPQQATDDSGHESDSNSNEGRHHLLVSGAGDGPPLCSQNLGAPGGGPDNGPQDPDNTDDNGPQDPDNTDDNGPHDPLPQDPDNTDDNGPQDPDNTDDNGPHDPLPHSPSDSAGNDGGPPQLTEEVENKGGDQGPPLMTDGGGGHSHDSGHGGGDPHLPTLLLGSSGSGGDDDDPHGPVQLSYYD
Dual specificity protein kinase CLK1, sequence (P49759 whole entry): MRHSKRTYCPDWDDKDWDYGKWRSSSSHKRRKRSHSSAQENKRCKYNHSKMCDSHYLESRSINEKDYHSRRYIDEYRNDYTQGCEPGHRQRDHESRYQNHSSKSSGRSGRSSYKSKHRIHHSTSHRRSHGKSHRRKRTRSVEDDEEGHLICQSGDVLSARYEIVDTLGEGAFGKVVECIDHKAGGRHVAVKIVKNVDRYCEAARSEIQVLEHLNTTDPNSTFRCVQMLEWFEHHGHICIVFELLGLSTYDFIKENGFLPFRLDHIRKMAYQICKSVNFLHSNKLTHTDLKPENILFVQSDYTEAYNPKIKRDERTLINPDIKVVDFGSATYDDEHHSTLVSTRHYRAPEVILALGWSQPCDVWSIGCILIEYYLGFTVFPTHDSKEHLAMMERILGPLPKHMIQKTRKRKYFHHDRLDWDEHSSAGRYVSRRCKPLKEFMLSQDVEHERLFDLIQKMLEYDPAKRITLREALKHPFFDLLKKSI

SMILES: COc1cnc(-c2ccccn2)nc1NC(C)C
EC50 [1]: 23.1 µM (active)
EC50 [2]: 19.7 µM (active)
EC50 [3]: > 38 µM (not active)
EC50 [4]: 2.05 µM (active)
EC50 [5]: > 350 µM (not active)
EC50 [6]: 3.77 µM (active)
AC50 [7]: 12.4 µM (active)
AC50 [8]: 37.1 µM (active)
AC50 [9]: 7.93 µM (active)
AC50 [10]: 2.81 µM (active)
AC50 [11]: 5.96 µM (active)
AC50 [12]: 3.16 µM (active)

SMILES: COc1ccc(C(=O)C(CN2CCOCC2)c2ccccc2)cc1F (stereo unspecified)
EC50 [13]: 5.54 µM (active)
EC50 [14]: 8.65 µM (active)
EC50 [15]: 2.19 µM (active)
EC50 [16]: 1.31 µM (active)
AC50 [17]: 13.2 µM (active)
AC50 [18]: 5.06 µM (active)

AC50 [19]: 11.3 µM (active)
AC50 [20]: < 0.00195 µM (active)
SMILES: Cc1ccc(CN(C)c2ncnc3ccc(-c4ccc5c(c4)OCO5)cc23)o1

SMILES: Cc1oc2c(F)c(F)c(F)c(F)c2c1S(=O)(=O)Nc1cccc(C(F)(F)F)c1
EC50 [1]: > 160 µM (inconclusive)
EC50 [3]: 0.859 µM (active)
EC50 [21]: 18.1 µM (active)
AC50 [22]: 2.3 µM (active)
EC50 [23]: 9.76 µM (active)
EC50 [24]: 4.6 µM (active)
